From paper PMC7663272, “Discovery of Tricyclic Pyranochromenone as Novel Bruton’s Tyrosine Kinase Inhibitors with In Vivo Antirheumatic Activity” (International Journal of Molecular Sciences, 2020)

Tests used:
JAK3 = target: T1, JAK3 (Homo sapiens, UniProt P52333); assay: HotSpot kinase enzymatic assay, JAK3; assay type: biochemical
T1 construct: purchased Reaction Biology Corporation
T1 sequence (P52333 1-1124): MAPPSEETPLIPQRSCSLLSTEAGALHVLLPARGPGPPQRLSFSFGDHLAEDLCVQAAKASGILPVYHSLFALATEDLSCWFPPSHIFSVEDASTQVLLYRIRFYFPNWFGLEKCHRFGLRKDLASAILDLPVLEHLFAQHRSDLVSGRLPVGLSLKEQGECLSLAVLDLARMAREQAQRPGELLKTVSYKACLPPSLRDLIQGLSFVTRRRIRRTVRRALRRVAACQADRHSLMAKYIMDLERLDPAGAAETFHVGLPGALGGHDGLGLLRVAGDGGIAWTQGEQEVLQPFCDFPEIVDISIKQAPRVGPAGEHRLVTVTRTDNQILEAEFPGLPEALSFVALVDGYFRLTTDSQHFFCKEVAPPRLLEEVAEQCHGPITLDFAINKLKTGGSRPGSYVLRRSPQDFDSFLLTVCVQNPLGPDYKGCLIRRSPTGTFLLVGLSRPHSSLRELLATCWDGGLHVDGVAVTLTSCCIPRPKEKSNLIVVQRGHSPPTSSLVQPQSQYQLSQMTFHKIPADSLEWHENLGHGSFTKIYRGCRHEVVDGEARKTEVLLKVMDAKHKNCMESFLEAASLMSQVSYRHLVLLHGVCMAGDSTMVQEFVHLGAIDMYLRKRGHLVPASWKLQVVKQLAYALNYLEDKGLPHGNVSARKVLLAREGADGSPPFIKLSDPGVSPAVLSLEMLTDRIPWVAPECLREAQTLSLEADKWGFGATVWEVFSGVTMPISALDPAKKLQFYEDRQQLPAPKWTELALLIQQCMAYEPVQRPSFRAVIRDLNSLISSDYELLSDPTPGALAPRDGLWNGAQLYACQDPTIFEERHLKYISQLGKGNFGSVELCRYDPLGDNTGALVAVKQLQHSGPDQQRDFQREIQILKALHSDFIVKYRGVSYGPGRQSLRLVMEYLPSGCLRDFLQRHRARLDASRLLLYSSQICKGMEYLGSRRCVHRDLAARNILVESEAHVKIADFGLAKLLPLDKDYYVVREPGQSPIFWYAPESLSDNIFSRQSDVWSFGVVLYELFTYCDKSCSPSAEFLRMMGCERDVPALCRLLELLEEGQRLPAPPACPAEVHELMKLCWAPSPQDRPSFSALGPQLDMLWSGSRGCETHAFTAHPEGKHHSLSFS
Method: Therefore, efforts have focused on developing new compounds with good selectivity profiles. […] Compound 8 was selective against BTK. The biochemical activities of compound 8 differed among TEC family kinases. […] The inhibitory potential of compound 8 differed between members of the EGFR family. […] The inhibitory activity of compound 8 against JAK3 was also low.
Kinase enzymatic assays for BTK, BMX, TXK, TEC, ITK, EGFR, ERBB2, ERBB4, and JAK3 were performed at Reaction Biology Corporation (www.reactionbiology.com, Malvern, PA, USA) using the HotSpot assay platform. Briefly, specific kinase/substrate pairs and the required cofactors were prepared in a reaction buffer comprising 20 mM HEPES (pH 7.5), 10 mM MgCl2, 1 mM EGTA, 0.02% Brij35, 0.02 mg/mL BSA, 0.1 mM Na3VO4, 2 mM DTT, and 1% DMSO. The compounds were added to the reaction mixture and allowed to incubate. Approximately 20 min later, a mixture of ATP (Sigma-Aldrich, St. Louis, MO, USA) and ^33P ATP (PerkinElmer, Waltham, MA, USA) was added to the reaction mixture at a final concentration of 10 μM. The reactions were performed at room temperature for 120 min; subsequently, the reactions were spotted onto P81 ion exchange filter papers (Whatman Inc., Maidstone, UK). Any unbound phosphate was removed by thoroughly washing the filter papers with 0.75% phosphoric acid. […]

[1] = tested on: collagen-induced arthritis (CIA); assay: Murine model of collagen-induced arthritis (CIA); assay type: in vivo
Method: The in vivo efficacy of compound 8 was evaluated in a murine inflammatory model of collagen-induced arthritis (CIA). The study included four groups: a vehicle-treated control group and three treatment groups. The treatment groups comprised a dexamethasone-treated group, in which dexamethasone served as the positive control, and two treatment groups, in which animals were treated with compound 8 at doses of 10 and 50 mg/kg. Compound 8 was administered once daily for 15 days by oral gavage, and the in vivo efficacy was evaluated by measuring the clinical score and foot volume. […] There were no significant changes in the body weights of animals in all the treatment groups (data not shown) during treatment.
The animal study was approved by the Institutional Animal Care and Use Committee (IACUC) of the Korea Research Institute of Bioscience and Biotechnology on March 15, 2017, under approval number KRIBB-AEC-17090. Male DBA1/JNCrli mice (7 weeks old) were purchased from Japan CRL, Inc. The mice were housed in specific pathogen-free (SPF) conditions and were allowed ad libitum access to food and water. After 7 days of acclimatization, the mice were immunized with 0.05 mL of a type II collagen emulsion (Hooke Kit^TM Chicken Collagen, Cat. No. EK-0210 from Hooke) and Freund’s complete adjuvant by subcutaneous injection at 1.5 cm distal from the base of the tail. After 21 days, the immunized mice were administered a booster injection with 0.05 mL of a type II collagen emulsion (Hooke Kit^TM Chicken Collagen, Cat. No. EK-0211 from Hooke) and Freund’s incomplete adjuvant. The emulsions were prepared according to the manufacturer’s instructions. On day 21, the mice with CIA were randomized into four groups. The animals in the four groups were administered either 0.3 mg/kg dexamethasone (n = 5), 10 mg/kg compound 8 (n = 5), 50 mg/kg compound 8 (n = 5), or vehicle (n = 5), once a day, for […], orally. The vehicle, in which all test compounds were suspended, comprised DMAC (10%), Tween 80 (10%), and DW (80%). Clinical arthritis scores and body weights were assessed three times per week for 15 days. The paw volumes were measured using a LE7500 plethysmometer (Panlab, Barcelona, Spain) on days 0 and 42.

## C=CC(=O)O[C@H]1Cc2cc3ccc(=O)oc3cc2OC1(C)C [Compound 8, (7S)-(+)-Acrylic acid, 8,8-dimethyl-2-oxo-6,7-dihydro-2H,8H-pyrano [3,2-g]chromen-7-yl ester]
JAK3
  inhibitory activity against JAK3 (in words): low
JAK3; 10 µM, mean of two experiments
  inhibition at 10 µM: 13.2%
[1]; mice with CIA, 10 and 50 mg/kg oral
  toxicity: no obvious toxicity
[1]; mice, 50 mg/kg oral, dexamethasone 0.3 mg/kg
  efficacy compared with dexamethasone: comparable to that of dexamethasone at 0.3 mg/kg
[1]; mice, 10 and 50 mg/kg, daily oral, t-test
  clinical scores vs control: differed significantly from those with the control
[1]; mice, 10 and 50 mg/kg, once daily, oral gavage, 15 days
  severity of CIA (clinical score and foot volume): significantly reduced the severity of CIA in a dose-dependent manner
